# Laboratory results reported in US20040005537A1, “Method of identifying toxic agents using differential gene expression” (priority 2000, published 2004).
# Tested on: rat heart tissue
# Experiment: GENECALLING differential gene expression analysis after dosing of serotonin modulating agents
# Assay type: in vivo, Sprague Dawley rats
# Procedure: Control animals received sterile water or canola oil. The animals were sacrificed 24 hours following the last dose. Liver tissue was dissected from the animals, and total RNA was recovered from the dissected tissue. cDNA was prepared and the resulting samples were processed through using GENECALLING™ differential expression analysis as described in U.S. Pat. No. 5,871,697 and in Shimkets et al., Nature Biotechnology 17:798-803 (1999). The contents of these patents and publications are incorporated herein by reference in their entirety.
# Thousands of gene fragments were initially found to be differentially expressed in rat heart tissue in response to serotonin modulating agents in. Genes fragments whose expression levels were modulated greater than ±1.5-fold were selected for further analysis.
# Column 6 of Table 1, entitled “Function”, lists the type of classification assigned for the protein, based on its function. The 210 single nucleic acid sequences identified herein, are referred to herein as CARDIOTOX 1-210.
smiles,measurement,setting,value
CC(C)CC(N(C)C)C1(c2ccc(Cl)cc2)CCC1 (stereo not shown) [sibutramine],"Effects on Transcription Level: Novel gene fragment, 467 bp, 94% SI to mouse gelsolin [J04953]",CARDIOTOX 70,−1.7 fold
same,"Effects on Transcription Level: Novel gene fragment, 535 bp, 90% SI to mouse slow/cardiac troponin C [M29793]",CARDIOTOX 71,−1.9 fold
same,"Effects on Transcription Level: Novel gene fragment, 445 bp, 85% SI to human skeletal muscle alpha 2 actinin [M86406]",CARDIOTOX 72,−2.2 fold
same,"Effects on Transcription Level: Novel gene fragment, 246 bp, 89% SI to mouse ponsin-1 [AF078667]",CARDIOTOX 73,−2.8 fold
same,"Effects on Transcription Level: Novel gene fragment, 126 bp, 77% SI to human DNA sequence from cosmid V311G7, between markers DXS366 and DXS87 on chromosome X [Z69304]",CARDIOTOX 74,+2.2 fold
same,"Effects on Transcription Level: Novel gene fragment, 370 bp",CARDIOTOX 75,−1.9 fold
same,"Effects on Transcription Level: Novel gene fragment, 337 bp, 78% SI to novel human protein AHNAK [M80899]",CARDIOTOX 76,−3.5 fold
same,"Effects on Transcription Level: Novel gene fragment, 100 bp, 93% SI to human KIAA0750 protein [ABO18293]",CARDIOTOX 77,−8.4 fold
same,"Effects on Transcription Level: Novel gene fragment, 44 bp",CARDIOTOX 78,−2.9 fold
same,"Effects on Transcription Level: Novel gene fragment, 698 bp, 93% SI to mouse plenty-of-prolines-101 [AF062655]",CARDIOTOX 79,−2.3 fold
same,"Effects on Transcription Level: Novel gene fragment, 660 bp, 84% SI to mouse membrane protein TMS-2 [AF181685]",CARDIOTOX 80,−1.9 fold
same,"Effects on Transcription Level: Novel gene fragment, 115 bp",CARDIOTOX 81,−13.1 fold
same,"Effects on Transcription Level: Novel gene fragment, 294 bp, 95% SI to mouse Ndr1 related protein Ndr2 [AB033921]",CARDIOTOX 82,−3.3 fold
same,"Effects on Transcription Level: Novel gene fragment, 198 bp",CARDIOTOX 83,+3.1 fold
same,"Effects on Transcription Level: Novel gene fragment, 730 bp, 86% SI to mouse E800 [Y10968]",CARDIOTOX 84,−2.1 fold
same,"Effects on Transcription Level: Novel gene fragment, 294 bp, 98% SI to cysteine conjugate beta-lyase [S61960]",CARDIOTOX 85,−2.1 fold
same,Effects on Transcription Level: Aconitase,"CARDIOTOX 86, GenBank A1243266",−2.9 fold
same,Effects on Transcription Level: Ribosomal protein L7,"CARDIOTOX 87, GenBank M17422",+3.7 fold
same,Effects on Transcription Level: Ribosomal protein L9,"CARDIOTOX 88, GenBank X51706",+8.0 fold
same,Effects on Transcription Level: Ribosomal protein L12,"CARDIOTOX 89, GenBank X53504",−1.5 fold
same,"Effects on Transcription Level: 18S, 5.8S, and 28S ribosomal RNA's","CARDIOTOX 90, GenBank V01270",+6 fold
same,Effects on Transcription Level: Pyruvate dehydrogenase kinase 2 (PDK2),"CARDIOTOX 91, GenBank U10357",−9.5 fold
same,Effects on Transcription Level: D-Binding Protein (DBP),"CARDIOTOX 92, GenBank J03179",−1.7 fold
same,Effects on Transcription Level: Lipoprotein lipase,"CARDIOTOX 93, GenBank L03294",−2.5 fold
same,Effects on Transcription Level: Non-neuronal enolase,"CARDIOTOX 94, GenBank X02610",+3.1 fold
same,Effects on Transcription Level: Glycogen phosphorylase (muscle isozyme),"CARDIOTOX 95, GenBank L10669",−2.0 fold
same,Effects on Transcription Level: Cytochrome c oxidase subunit IV,"CARDIOTOX 96, GenBank X14209",+8.0 fold
same,Effects on Transcription Level: Alpha-globin,"CARDIOTOX 97, GenBank M17083",+7.0 fold
same,Effects on Transcription Level: Beta-globin,"CARDIOTOX 98, GenBank X06701",+5.0 fold
same,Effects on Transcription Level: Myoglobin,"CARDIOTOX 99, GenBank AF197916",+7.0 fold
same,Effects on Transcription Level: Titin,"CARDIOTOX 100, GenBank L38717",+1.5 fold
same,Effects on Transcription Level: Skeletal muscle actin,"CARDIOTOX 101, GenBank V01218",−3.8 fold
same,Effects on Transcription Level: Myosin light chain 2 (MLC2),"CARDIOTOX 102, GenBank M11851",+1.9 fold
same,Effects on Transcription Level: Alpha cardiac myosin heavy chain,"CARDIOTOX 103, GenBank X15938",−3.2 fold
same,Effects on Transcription Level: Troponin I,"CARDIOTOX 104, GenBank U77354",+1.6 fold
same,Effects on Transcription Level: Cardiac calsequestrin,"CARDIOTOX 105, GenBank AF001334",−2.5 fold
same,Effects on Transcription Level: Sulfated glycoprotein 2,"CARDIOTOX 106, GenBank M16975",−1.5 fold
same,Effects on Transcription Level: Aquaporin 7,"CARDIOTOX 107, GenBank AB000507",+1.6 fold
same,Effects on Transcription Level: Carnitine/acylcarnitine carrier protein,"CARDIOTOX 108, GenBank X97831",−1.9 fold
same,Effects on Transcription Level: Glu-Pro Dipeptide Repeat,"CARDIOTOX 109, GenBank U40628",−5.5 fold
same,Effects on Transcription Level: Cystatin beta,"CARDIOTOX 110, GenBank X54737",+3.1 fold
same,"Effects on Transcription Level: Novel gene fragment, 593 bp, 90% SI to human calcineurin B-like protein [Z08983]",CARDIOTOX 111,+2.1 fold
same,"Effects on Transcription Level: Novel gene fragment, 179 bp, 88% SI to human titin [X90568]",CARDIOTOX 112,−2.0 fold
same,"Effects on Transcription Level: Novel gene fragment, 700 bp, 91% SI to mouse periplakin (PPL) [AF116523]",CARDIOTOX 113,+2.2 fold
same,Effects on Transcription Level: Long chain acyl-CoA dehydrogenase (LCAD),"CARDIOTOX 114, GenBank J05029",+1.8 fold
same,Effects on Transcription Level: Sulfated glycoprotein 1 (SGP-1),"CARDIOTOX 115, GenBank M19936",−2.3 fold
same,Effects on Transcription Level: Catalase,"CARDIOTOX 116, GenBank M11670",+1.8 fold
same,Effects on Transcription Level: Alpha-fodrin (A2A) (Nonerythroid spectrin alpha subunit),"CARDIOTOX 117, GenBank AF084186",+5.0 fold
same,Effects on Transcription Level: Cardiac specific sodium channel alpha-subunit,"CARDIOTOX 118, GenBank M27902",−2.9 fold
same,Effects on Transcription Level: Glu-Pro Dipeptide Repeat,"CARDIOTOX 119, GenBank U40628",+6.0 fold
same,"Effects on Transcription Level: Novel gene fragment, 200 bp, 64% SI to human KIAA0733 protein [AB018316]",CARDIOTOX 120,−1.5 fold
same,Effects on Transcription Level: RNA polymerase II transcription factor SIII (p18 subunit),"CARDIOTOX 121, GenBank L42855",+2.0 fold
same,Effects on Transcription Level: Protein-tyrosine phosphalase (LRP),"CARDIOTOX 122, GenBank L01702",+1.5 fold
same,Effects on Transcription Level: Skeletal muscle selenoprotein W (SelW),"CARDIOTOX 123, GenBank U25264",−1.5 fold
same,Effects on Transcription Level: Sarcoplasmic reticulum 2+-Ca-ATPase,"CARDIOTOX 124, GenBank X15635",−2.0 fold
same,Effects on Transcription Level: Ribosomal protein S7,"CARDIOTOX 125, GenBank X53377",+1.8 fold
same,Effects on Transcription Level: Ribophorin I,"CARDIOTOX 126, GenBank X05300",+1.6 fold
same,Effects on Transcription Level: Beta cardiac myosin heavy chain,"CARDIOTOX 127, GenBank X15939",−1.7 fold
same,Effects on Transcription Level: ADP-ribosylation factor 1,"CARDIOTOX 128, GenBank L12380",−2.0 fold
same,Effects on Transcription Level: Laminin receptor,"CARDIOTOX 129, GenBank U04942",+4.6 fold
same,"Effects on Transcription Level: Novel gene fragment, 206 bp, 89% SI to human seryl-tRNA synthetase [X91257]",CARDIOTOX 130,+1.4 fold
same,Effects on Transcription Level: Annexin VI,"CARDIOTOX 131, GenBank X86086",+1.4 fold
same,"Effects on Transcription Level: Novel gene fragment, 325 bp, 90% SI to mouse N-RAP [U76618]",CARDIOTOX 132,−1.1 fold
same,"Effects on Transcription Level: Novel gene fragment, 61 bp (CARDIOTOX 134)",LD10 dose for three days,+1.0 fold
same,"Effects on Transcription Level: Novel gene fragment, 337 bp (CARDIOTOX 133)",LD10 dose for three days,−1.1 fold
same,"Effects on Transcription Level: Novel gene fragment, 378 bp, 88% SI to human coatomer protein (COPA) [U24105] (CARDIOTOX 138)",LD10 dose for three days,−2.3 fold
same,Effects on Transcription Level: Long chain 3-ketoacyl-CoA thiolase (CARDIOTOX 136),"LD10 dose for three days, GenBank D16479",−2.0 fold
same,Effects on Transcription Level: TATA-binding protein interacting protein 120 (TIP120) (CARDIOTOX 135),"LD10 dose for three days, GenBank D87671",+1.3 fold
same,Effects on Transcription Level: Serine protease (CARDIOTOX 139),"LD10 dose for three days, GenBank D88250",+1.3 fold
same,Effects on Transcription Level: Thymosin beta-4 (CARDIOTOX 137),"LD10 dose for three days, GenBank M34043",+1.5 fold
